Patent publication US20180353501A1 (Arvinas, Inc., priority 2017, published 2018)

Test system: p38α and p38δ mRNA
Test: Quantitative real-time PCR in MDA-MB-231 cells
Type: cell-based
Conditions: 250 nM, 24 hours
Experimental: FIGS. 13A, 13B, 13C, and 13D. Exemplary compounds 50 and 46 degrade p38 isoforms in a manner that is rapid, sustained, and proteasome-dependent. (A) MDA-MB-231 cells were either pre-treated or not with the proteasome inhibitor epoxomicin (1 μM) or the neddylation inhibitor MLN4924 (1 μM) for 30 minutes and subsequently treated with either vehicle (DMSO), exemplary compound 50 (250 nM), or exemplary compound 46 (250 nM) for 6 hours. (B) Quantitative real-time PCR was performed after 24 hours of treatment with either vehicle (DMSO), exemplary compound 50 (250 nM), or exemplary compound 46 (250 nM) in MDAMB-231 cells. […]
MDA-MB-231 cells were plated at 3×10^5 cells per well in a 6-well dish, allowed to adhere, and were treated with either vehicle (DMSO) or PROTAC (250 nM) for 24 hours. […] RNA pellet was washed twice with 75% EtOH and allowed to air dry for 15 minutes, after which RNA was dissolved in 25 μL of nuclease-free H2O. cDNA was synthesized from 4 μg of total RNA per condition according to the manufacturer's protocol (Applied Biosystems) and real-time PCR was performed with 800 nM primers, diluted with 4 μL SYBR Green Reaction Mix (Applied Biosystems). qRT-PCR samples were performed and analyzed in triplicate, from two independent experiments. […]

Row | Structure (SMILES) | change in mRNA for either p38 isoform
1 | COc1cc2c(Oc3ccc(NC(=O)C4(C(=O)Nc5ccc(F)cc5)CC4)cc3F)ccnc2cc1OCCOCCOCCOc1cc(-c2scnc2C)ccc1CNC(=O)[C@@H]1C[C@@H](O)CN1C(=O)[C@H](C(C)C)N1Cc2ccccc2C1=O [compound 46] | no significant changes in mRNA
2 | COc1cc2c(Oc3ccc(NC(=O)C4(C(=O)Nc5ccc(F)cc5)CC4)cc3F)ccnc2cc1OCCCCOCCCCOCC(=O)N[C@H](C(=O)N1C[C@H](O)C[C@H]1C(=O)NCc1ccc(-c2scnc2C)cc1)C(C)(C)C [compound 50, N-(3-fluoro-4-((7-(4-(4-(2-(((S)-1-((2S,4R)-4-hydroxy-2-((4-(4-methylthiazol-5-yl)benzyl)carbamoyl)pyrrolidin-1-yl)-3,3-dimethyl-1-oxobutan-2-yl)amino)-2-oxoethoxy)butoxy)buto-xy)-6-methoxyquinolin-4-yl)oxy)phenyl)-N-(4-fluorophenyl)cyclopropane-1,1-dicarboxa-mide] | no significant changes in mRNA
